Data: PMC6337650 (Molecules, 2018)

Assays:
[1] = tested on: HCT-116 cells; test: MTT antiproliferative assay, HCT-116; type: cell-based, human; conditions: Homo sapiens, HCT-116, 48 h, MTT, mean ± SD, n=3; for inhibition at 100 µM: read-out: % Growth Inhibition at 100 μM HCT-116
Description: (§1) The antiproliferative activity of the target compounds against a normal L02 cell line and the three different human cancer cell lines viz. colorectal (HCT-116), liver (BEL-7402) and liver (HepG2) were evaluated using a standard MTT-based colorimetric assay. All cell lines were obtained from the Key Laboratory of Natural Resources and Functional Molecules of the Changbai Mountain (Yanbian University, Jilin, China) and maintained in Dulbecco’s modified Eagle’s medium (DMEM) and RPMI Media 1640 (RPMI1640), supplemented with 10% fetal bovine serum (FBS) at 37 °C in a humidified atmosphere containing 5% CO2.
(§2) Cells were plated in 96-well plates at appropriate densities to ensure exponential growth throughout the experimental period (9 × 10^3 cells per well) and then allowed to adhere for 24 h. Cells were then treated for 48 h with four serial concentrations (1, 10, 50 and 100 µM) of each compound. 5-fluorouracil (5-FU) was used as a positive control. After 48 h of incubation, 10 µL of MTT solution was added to each well to a final concentration of 2 mg/mL. Plates were then incubated for a further 4 h. After incubation, the MTT solution was removed and 150 µL of DMSO was added to each well for coloration. The plates were shaken vigorously for 10 min at room temperature to ensure complete solubilization. The optical density (OD) was read on a microplate reader (ELx800, BioTek, Highland Park, Winooski, VT, USA) at a wavelength of 492 nm and the data were subsequently analyzed. The percentage of cell growth inhibition was calculated from the following equation: Inhibitory rate (%) = [(1 − (ODtreated-ODblank)/(ODcontrol-ODblank)] × 100.(1)

[2] = tested on: BEL-7402 cells; test: MTT antiproliferative assay, BEL-7402; type: cell-based, human; conditions: Homo sapiens, Bel-7402, 48 h, MTT, mean ± SD, n=3; for inhibition at 100 µM: read-out: % Growth Inhibition at 100 μM BEL-7402
Description: as §1, §2

[3] = tested on: HepG2 cells; test: MTT antiproliferative assay, HepG2; type: cell-based, human; conditions: Homo sapiens, HepG2, 48 h, MTT, mean ± SD, n=3; for inhibition at 100 µM: read-out: % Growth Inhibition at 100 μM HepG2
Description: as §1, §2

IC50 [1]	IC50 [2]	IC50 [3]	melting point	SMILES	inhibition at 100 µM [1]	inhibition at 100 µM [2]	inhibition at 100 µM [3]
24.8 ± 2.08 µM	21.3 ± 2.43 µM	23.4 ± 0.37 µM	–	O=c1[nH]cc(F)c(=O)[nH]1 [5-FU, 5-fluorouracil, reference compound]	–	–	–
–	–	–	136 to 137 °C	C[C@@]12CC[C@@H]3[C@@](CC[C@H]4[C@@]3(C)CCC[C@@]4(C)C(=O)NCCN3CCCC3)(CC1=O)C2 [Compound 1a, (4R,4aS,6aR,9S,11aR,11bS)-4,9,11b-trimethyl-8-oxo-N-(2-(pyrrolidin-1-yl)ethyl)tetradecahydro-6a,9-methanocyclohepta[a]naphthalene-4-carboxamide]	65.2 ± 2.52%	87.1 ± 2.37%	66 ± 1.33%
–	–	–	144 to 145 °C	CON(C)C(=O)[C@]1(C)CCC[C@@]2(C)[C@@H]3CC[C@@]4(C)C[C@]3(CC[C@@H]21)CC4=O [Compound 1c, (4R,4aS,6aR,9S,11aR,11bS)-N-methoxy-N,4,9,11b-tetramethyl-8-oxotetradecahydro-6a,9-methanocyclohepta[a]naphthalene-4-carboxamide]	< 10%	31.3 ± 1.22%	< 10%
–	–	–	112 to 113 °C	CN1CCN(C(=O)COC(=O)[C@]2(C)CCC[C@@]3(C)[C@@H]4CC[C@@]5(C)C[C@]4(CC[C@@H]32)CC5=O)CC1 [Compound 2a, 2-(4-methylpiperazin-1-yl)-2-oxoethyl(4R,4aS,6aR,9S,11aR,11bS)-4,9,11b-trimethyl-8-oxotetradecahydro-6a,9-methanocyclohepta[a]naphthalene-4-carboxylate]	62.1 ± 1.02%	65 ± 2.62%	40.6 ± 0.7%
–	–	–	143 to 144 °C	C[C@@]12CC[C@@H]3[C@@](CC[C@H]4[C@@]3(C)CCC[C@@]4(C)C(=O)OCC(=O)N3CCN(c4ccccc4)CC3)(CC1=O)C2 [Compound 2c, 2-oxo-2-(4-phenylpiperazin-1-yl)ethyl(4R,4aS,6aR,9S,11aR,11bS)-4,9,11b-trimethyl-8-oxotetradecahydro-6a,9-methanocyclohepta[a]naphthalene-4-carboxylate]	15.7 ± 0.61%	40.5 ± 0.87%	< 10%
–	–	–	–	COC(=O)C(NC(=O)C1(C)CCCC2(C)C3CCC4(C)CC3(CCC12)CC4=O)C(C)C [Compound 3c, Methyl((4R,4aS,6aR,9S,11aR,11bS)-4,9,11b-trimethyl-8-oxotetradecahydro-6a,9-methanocyclohepta[a]naphthalene-4-carbonyl)-L-valinate]	54.7 ± 0.59%	66.6 ± 1.9%	23.9 ± 0.85%
–	–	–	165 to 166 °C	COC(=O)C(Cc1c[nH]c2ccccc12)NC(=O)C1(C)CCCC2(C)C3CCC4(C)CC3(CCC12)CC4=O [Compound 3d, Methyl((4R,4aS,6aR,9S,11aR,11bS)-4,9,11b-trimethyl-8-oxotetradecahydro-6a,9-methanocyclohepta[a]naphthalene-4-carbonyl)-L-tryptophanate]	19.7 ± 1.11%	35.8 ± 2.37%	< 10%
–	–	–	107 to 108 °C	C[C@@]12CC[C@@H]3[C@@](CC[C@H]4[C@@]3(C)CCC[C@@]4(C)C(=O)OCC(=O)Nc3ccccc3Cl)(CC1=O)C2 [Compound 4b, 2-((2-chlorophenyl)amino)-2-oxoethyl(4R,4aS,6aR,9S,11aR,11bS)-4,9,11b-trimethyl-8-oxotetradecahydro-6a,9-methanocyclohepta[a]naphthalene-4-carboxylate]	< 10%	< 10%	< 10%
–	–	–	120 to 122 °C	C[C@@]12CC[C@@H]3[C@@](CC[C@H]4[C@@]3(C)CCC[C@@]4(C)C(=O)OCC(=O)Nc3cccc(Cl)c3)(CC1=O)C2 [Compound 4c, 2-((3-chlorophenyl)amino)-2-oxoethyl(4R,4aS,6aR,9S,11aR,11bS)-4,9,11b-trimethyl-8-oxotetradecahydro-6a,9-methanocyclohepta[a]naphthalene-4-carboxylate]	62.3 ± 3.55%	35.7 ± 2.56%	< 10%
–	–	–	140 to 142 °C	C[C@@]12CC[C@@H]3[C@@](CC[C@H]4[C@@]3(C)CCC[C@@]4(C)C(=O)OCC(=O)Nc3ccc(Cl)cc3)(CC1=O)C2 [Compound 4d, 2-((4-chlorophenyl)amino)-2-oxoethyl(4R,4aS,6aR,9S,11aR,11bS)-4,9,11b-trimethyl-8-oxotetradecahydro-6a,9-methanocyclohepta[a]naphthalene-4-carboxylate]	56.9 ± 2.35%	52.9 ± 2.11%	31.9 ± 1.31%
–	–	–	168 to 169 °C	C[C@@]12CC[C@@H]3[C@@](CC[C@H]4[C@@]3(C)CCC[C@@]4(C)C(=O)OCC(=O)Nc3ccccc3F)(CC1=O)C2 [Compound 4e, 2-((2-fluorophenyl)amino)-2-oxoethyl(4R,4aS,6aR,9S,11aR,11bS)-4,9,11b-trimethyl-8-oxotetradecahydro-6a,9-methanocyclohepta[a]naphthalene-4-carboxylate]	27.9 ± 0.44%	38.7 ± 1.52%	< 10%
–	–	–	140 to 141 °C	C[C@@]12CC[C@@H]3[C@@](CC[C@H]4[C@@]3(C)CCC[C@@]4(C)C(=O)OCC(=O)Nc3ccc(F)cc3)(CC1=O)C2 [Compound 4g, 2-((4-fluorophenyl)amino)-2-oxoethyl(4R,4aS,6aR,9S,11aR,11bS)-4,9,11b-trimethyl-8-oxotetradecahydro-6a,9-methanocyclohepta[a]naphthalene-4-carboxylate]	65.6 ± 3.01%	63 ± 2.13%	39.1 ± 1.13%
–	–	–	86 to 88 °C	COc1ccc(NC(=O)COC(=O)[C@]2(C)CCC[C@@]3(C)[C@@H]4CC[C@@]5(C)C[C@]4(CC[C@@H]32)CC5=O)cc1 [Compound 4i, 2-((4-methoxyphenyl)amino)-2-oxoethyl(4R,4aS,6aR,9S,11aR,11bS)-4,9,11b-trimethyl-8-oxotetradecahydro-6a,9-methanocyclohepta[a]naphthalene-4-carboxylate]	53.1 ± 2.56%	45.6 ± 1.47%	< 10%
–	–	–	166 to 168 °C	COc1ccc(OC)c(NC(=O)COC(=O)[C@]2(C)CCC[C@@]3(C)[C@@H]4CC[C@@]5(C)C[C@]4(CC[C@@H]32)CC5=O)c1 [Compound 4j, 2-((2,5-dimethoxyphenyl)amino)-2-oxoethyl(4R,4aS,6aR,9S,11aR,11bS)-4,9,11b-trimethyl-8-oxotetradecahydro-6a,9-methanocyclohepta[a]naphthalene-4-carboxylate]	< 10%	31.3 ± 1.76%	< 10%

SMILES	IC50 [1]	IC50 [2]	IC50 [3]	melting point	inhibition at 100 µM [1]	inhibition at 100 µM [2]	inhibition at 100 µM [3]
CCOP(=O)(OCC)C(NC(=O)COC(=O)[C@]1(C)CCC[C@@]2(C)[C@@H]3CC[C@@]4(C)C[C@]3(CC[C@@H]21)CC4=O)c1ccccc1 (stereo partly drawn) [Compound 6a, 2-(((diethoxyphosphoryl)(phenyl)methyl)amino)-2-oxoethyl(4R,4aS,6aR,9S,11aR,11bS)-4,9,11b-trimethyl-8-oxotetradecahydro-6a,9-methanocyclohepta[a]naphthalene-4-carboxylate]	–	–	–	156 to 157 °C	50 ± 2.27%	33.7 ± 0.91%	28 ± 0.99%
CCOP(=O)(OCC)C(NC(=O)COC(=O)[C@]1(C)CCC[C@@]2(C)[C@@H]3CC[C@@]4(C)C[C@]3(CC[C@@H]21)CC4=O)c1ccc(Cl)cc1 (stereo partly drawn) [Compound 6b, 2-(((4-chlorophenyl)(diethoxyphosphoryl)methyl)amino)-2-oxoethyl(4R,4aS,6aR,9S,11aR,11bS)-4,9,11b-trimethyl-8-oxotetradecahydro-6a,9-methanocyclohepta[a]naphthalene-4-carboxylate]	–	–	–	149 to 150 °C	50.3 ± 2.31%	50.4 ± 1.63%	40.2 ± 2.56%
CCOP(=O)(OCC)C(NC(=O)COC(=O)[C@]1(C)CCC[C@@]2(C)[C@@H]3CC[C@@]4(C)C[C@]3(CC[C@@H]21)CC4=O)c1ccc(Cl)c(Cl)c1 (stereo partly drawn) [Compound 6e, 2-(((3,4-dichlorophenyl)(diethoxyphosphoryl)methyl)amino)-2-oxoethyl(4R,4aS,6aR,9S,11aR,11bS)-4,9,11b-trimethyl-8-oxotetradecahydro-6a,9-methanocyclohepta[a]naphthalene-4-carboxylate]	–	–	–	168 to 169 °C	43.5 ± 0.56%	49.9 ± 1.26%	39.5 ± 1.37%
